Earlier results as cited in article PMC3378994 (Bioorganic & medicinal chemistry letters, 2012).

Target: DAT (Rattus norvegicus, UniProt P23977)
Sequence (P23977 whole entry): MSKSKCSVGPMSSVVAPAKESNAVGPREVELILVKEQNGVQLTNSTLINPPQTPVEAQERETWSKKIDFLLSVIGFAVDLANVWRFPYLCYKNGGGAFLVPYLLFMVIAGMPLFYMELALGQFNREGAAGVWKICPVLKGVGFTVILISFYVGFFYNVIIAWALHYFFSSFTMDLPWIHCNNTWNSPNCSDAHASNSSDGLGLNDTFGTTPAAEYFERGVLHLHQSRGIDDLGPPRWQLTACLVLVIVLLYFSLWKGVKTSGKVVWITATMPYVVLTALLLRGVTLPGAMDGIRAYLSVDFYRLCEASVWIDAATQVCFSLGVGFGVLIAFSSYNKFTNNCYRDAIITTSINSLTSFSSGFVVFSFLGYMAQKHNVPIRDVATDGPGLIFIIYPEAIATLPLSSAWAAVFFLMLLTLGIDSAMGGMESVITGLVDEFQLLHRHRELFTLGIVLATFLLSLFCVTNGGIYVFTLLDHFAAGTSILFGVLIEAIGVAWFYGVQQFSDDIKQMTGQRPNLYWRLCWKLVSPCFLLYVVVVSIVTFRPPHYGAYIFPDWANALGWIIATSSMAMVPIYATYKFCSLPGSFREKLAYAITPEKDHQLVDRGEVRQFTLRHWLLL

SMILES: Cc1ccc([C@H]2C[C@@H]3CC[C@H]([C@H]2C(=O)OCC[18F])N3C/C=C/I)cc1 [[^18F]FE-PE2I]
- Fold lower affinity to other monoamine transporters than to DAT: more than 50 fold
